We go through 4 compounds from PubChem BioAssay AID1259407 (Chemical Carcinogenesis Research Information System (CCRIS), 2018).

Active and inactive are the calls of the source. The rule behind the calls is not given here.

This data set deals with CCRIS mutagenicity, Ames/micronucleus/aberration tests. Nature of the data set: CCRIS mutagenicity studies.

Regarding `O=C(O)C(F)(F)C(F)(Cl)C(F)(F)C(F)(Cl)C(F)(F)Cl` (configuration not stated), the mutagenic call was “inactive; negative” (Test System: AMES SALMONELLA TYPHIMURIUM, Strain/Indicator: TA98, Metabolic Activation: NONE, Method: PREINCUBATION); “inactive; negative” (Test System: AMES SALMONELLA TYPHIMURIUM, Strain/Indicator: TA98, Metabolic Activation: RAT, LIVER, S-9, Method: PREINCUBATION); “inactive; negative” (Test System: AMES SALMONELLA TYPHIMURIUM, Strain/Indicator: TA100, Metabolic Activation: NONE, Method: PREINCUBATION); “inactive; negative” (Test System: AMES SALMONELLA TYPHIMURIUM, Strain/Indicator: TA100, Metabolic Activation: RAT, LIVER, S-9, Method: PREINCUBATION); “inactive; negative” (Test System: AMES SALMONELLA TYPHIMURIUM, Strain/Indicator: TA1535, Metabolic Activation: NONE, Method: PREINCUBATION); “inactive; negative” (Test System: AMES SALMONELLA TYPHIMURIUM, Strain/Indicator: TA1535, Metabolic Activation: RAT, LIVER, S-9, Method: PREINCUBATION). For the same compound, the mutagenic call (Test System: AMES SALMONELLA TYPHIMURIUM, Strain/Indicator: TA1537, Metabolic Activation: NONE, Method: PREINCUBATION) was “inactive; negative”; the mutagenic call (Test System: AMES SALMONELLA TYPHIMURIUM, Strain/Indicator: TA1537, Metabolic Activation: RAT, LIVER, S-9, Method: PREINCUBATION) was “inactive; negative”; the mutagenic call (Test System: AMES SALMONELLA TYPHIMURIUM, Strain/Indicator: TA1538, Metabolic Activation: NONE, Method: PREINCUBATION) is “inactive; negative”; the mutagenic call (Test System: AMES SALMONELLA TYPHIMURIUM, Strain/Indicator: TA1538, Metabolic Activation: RAT, LIVER, S-9, Method: PREINCUBATION) is “inactive; negative”; the mutagenic call (Test System: CHINESE HAMSTER OVARY, Strain/Indicator: CHO-K1-BH4 (HGPRT), Metabolic Activation: NONE, Method: STANDARD PLATE) was “inactive; negative”; the mutagenic call (Test System: CHINESE HAMSTER OVARY, Strain/Indicator: CHO-K1-BH4 (HGPRT), Metabolic Activation: RAT, LIVER, S-9, Method: STANDARD PLATE) is “inactive; negative”. Where the note is “Test System: UDS RODENT HEPATOCYTES, Strain/Indicator: THY INCORP (NON-S-PHASE), Metabolic Activation: NONE, Method: AUTORADIOGRAPHY”, the mutagenic call was “inactive; negative”.

On to `CCc1cccc(NC(=O)c2csc([N+](=O)[O-])c2)c1`, for which the mutagenic call was “active; positive” (Test System: AMES SALMONELLA TYPHIMURIUM, Strain/Indicator: TA98, Metabolic Activation: NONE, Method: STANDARD PLATE) and “active; positive” (Test System: AMES SALMONELLA TYPHIMURIUM, Strain/Indicator: TA100, Metabolic Activation: NONE, Method: STANDARD PLATE).

For `CC(=O)Nc1cc2c(cc1OC(=O)c1ccccc1)-c1ccccc1C2`, the mutagenic call (Test System: AMES SALMONELLA TYPHIMURIUM, Strain/Indicator: TA98, Metabolic Activation: RAT, LIVER, S-9, AROCLOR 1254, Method: STANDARD PLATE) was “inactive; negative”.

Take `CCCCN(N=O)C(CCC)OC(C)=O` (configuration not stated): the mutagenic call (Test System: UDS RAT UROTHELIAL CELLS, Strain/Indicator: THY INCORP, Metabolic Activation: NONE) is “active; positive”.
